Results: publication PMC8830247 (Journal of medicinal chemistry, 2019)

Tests used:
D3R = conditions: cited from earlier work
[1] = rats, PO 10 mg/kg; adapted from previously reported data; cited from earlier work
Human Dopamine D3R = Human Dopamine D3R (Homo sapiens, UniProt P35462); assay: Stimulation or inhibition of quinpirole-stimulated mitogenesis in CHO cells; format: cell-based; conditions: mitogenesis assay
5-HT1A receptor = biological target: T1, 5-HT1A receptor (Homo sapiens, UniProt P08908); assay: 5-HT1A [35S]GTPγS binding functional assay
T1 sequence (P08908 1-422): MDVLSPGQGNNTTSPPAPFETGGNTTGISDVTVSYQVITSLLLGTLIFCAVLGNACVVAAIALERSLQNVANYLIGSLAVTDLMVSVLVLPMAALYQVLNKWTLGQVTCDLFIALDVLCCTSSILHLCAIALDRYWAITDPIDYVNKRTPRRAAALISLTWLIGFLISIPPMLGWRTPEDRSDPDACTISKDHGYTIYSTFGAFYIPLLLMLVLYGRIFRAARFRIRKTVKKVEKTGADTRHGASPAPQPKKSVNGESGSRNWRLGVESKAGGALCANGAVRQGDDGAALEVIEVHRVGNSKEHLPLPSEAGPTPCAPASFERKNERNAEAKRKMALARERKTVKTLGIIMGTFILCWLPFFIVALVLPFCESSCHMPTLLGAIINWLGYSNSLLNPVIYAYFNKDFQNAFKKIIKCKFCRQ

[2] = Pharmacokinetics in rats after oral administration, plasma and brain; conditions: PO 10 mg/kg
dogs = conditions: cited from earlier work
[3] = tested on: oxycodone self-administration; conditions: cited from earlier work
rats = conditions: pretreatment, rats chronically treated with oxycodone; cited from earlier work
[4] = hot plate assay; cited from earlier work

Sequence of Human Dopamine D3R (P35462 whole entry): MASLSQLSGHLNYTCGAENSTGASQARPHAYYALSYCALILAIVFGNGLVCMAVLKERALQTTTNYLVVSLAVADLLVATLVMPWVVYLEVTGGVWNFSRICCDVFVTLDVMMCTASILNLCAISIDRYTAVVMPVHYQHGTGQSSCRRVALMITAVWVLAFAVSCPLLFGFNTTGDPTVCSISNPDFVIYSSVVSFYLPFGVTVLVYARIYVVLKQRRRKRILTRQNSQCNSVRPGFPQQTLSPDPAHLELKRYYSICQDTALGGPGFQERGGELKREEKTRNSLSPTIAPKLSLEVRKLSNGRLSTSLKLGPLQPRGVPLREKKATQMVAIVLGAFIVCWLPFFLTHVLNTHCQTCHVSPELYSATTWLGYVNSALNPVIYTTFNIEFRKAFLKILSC

CCc1cccc(N2CCN(CC(O)CCNC(=O)c3cc4ccccc4[nH]3)CC2)c1Cl (centres unmarked) [compound 5]
D3R functional efficacy (in words) (D3R): relatively low efficacy partial agonist

CCc1cccc(N2CCN(C[C@H](O)CCNC(=O)c3cc4ccccc4[nH]3)CC2)c1Cl [(R)-5, (R)-N-(4-(4-(2-Chloro-3-ethylphenyl)piperazin-1-yl)-3-hydroxybutyl)-1H-indole-2-carboxamide]
plasma exposure (AUC0-t) [1]: 1.985 ± 0.2786 µM·h

CCc1cc(Cl)c(OC)c(N2CCN(C[C@H](O)CCNC(=O)c3cc4ccccc4[nH]3)CC2)c1 [(R)-4, (R)-N-(4-(4-(3-Chloro-5-ethyl-2-methoxyphenyl)piperazin-1-yl)3-hydroxybutyl)-1H-indole-2-carboxamide]
D3R functional efficacy (in words) (Human Dopamine D3R): D3R antagonists

O=C(NCC[C@@H](O)CN1CCN(c2cccc(Cl)c2Cl)CC1)c1cc2ccccc2[nH]1 [(R)-2]
D3R functional efficacy (in words) (D3R): antagonist

CCc1cccc(N2CCN(CC(F)CCNC(=O)c3cc4ccccc4o3)CC2)c1Cl (centres unmarked) [10b, N-(4-(4-(2-Chloro-3-ethylphenyl)piperazin-1-yl)-3-fluorobutyl)benzofuran-2-carboxamide]
5-HT1A functional efficacy (in words) (5-HT1A receptor): low potency partial agonist

CCc1cc(Cl)c(OC)c(N2CCN(C[C@@H](O)CCNC(=O)c3cc4ccccc4[nH]3)CC2)c1 [(S)-4, (S)-N-(4-(4-(3-Chloro-5-ethyl-2-methoxyphenyl)piperazin-1-yl)3-hydroxybutyl)-1H-indole-2-carboxamide]
D3R functional efficacy (in words) (Human Dopamine D3R): D3R antagonists

CCc1cccc(N2CCN(C[C@@H](O)CCNC(=O)c3cc4ccccc4[nH]3)CC2)c1Cl [(S)-5, (S)-N-(4-(4-(2-Chloro-3-ethylphenyl)piperazin-1-yl)-3-hydroxybutyl)-1H-indole-2-carboxamide]
brain Cmax [2]: 3666.7 ± 312.7 pmol/g

O=C(NCC[C@H](O)CN1CCN(c2cccc(Cl)c2Cl)CC1)c1cc2ccccc2[nH]1 [(S)-2]
D3R functional efficacy (in words) (D3R): weak partial agonist

Cc1ncoc1-c1nnc(SCCCN2C[C@@H]3C[C@]3(c3ccc(C(F)(F)F)cc3F)C2)n1C [compound 1]
blood pressure effect when coadministered with cocaine (dogs): produced hypertension

CCc1cc(Cl)c(OC)c(N2CCN(CC(O)CCNC(=O)c3cc4ccccc4[nH]3)CC2)c1 (centres unmarked) [compound 4]
acquisition and maintenance of oxycodone self-administration [3]: dose-dependently inhibited
oxycodone extinction response and reinstatement of oxycodone-seeking [3]: inhibited oxycodone extinction response and reinstatement of oxycodone-seeking behaviors
break-point for oxycodone self-administration ([3]; progressive-ratio schedule of reinforcement): lowering the break-point
naloxone-precipitated conditioned place aversion (rats): dose-dependently reduced
effect on antinociceptive actions of oxycodone [4]: no effect
